From patent US11135246B2, “Peptides and combination of peptides for use in immunotherapy against leukemias and other cancers” (Immatics Biotechnologies GmbH, priority 2017, dated 2021)

Tested on: CD8+ T cells
Assay: In vitro T-cell priming assay (immunogenicity): repeated stimulation of CD8+ T cells with aAPCs loaded with peptide/MHC complexes and anti-CD28, pMHC multimer readout
Assay type: cell-based, human
Settings: Table 10a; healthy donors; three stimulation cycles; HLA-A*02 (278), HLA-A*24 (279)
Experimental: In order to obtain information regarding the immunogenicity of the TUMAPs of the present invention, the inventors performed investigations using an in vitro T-cell priming assay based on repeated stimulations of CD8+ T cells with artificial antigen presenting cells (aAPCs) loaded with peptide/MHC complexes and anti-CD28 antibody. […]
Generation of pMHC/anti-CD28 coated beads, T-cell stimulations and readout was performed in a highly defined in vitro system using four different pMHC molecules per stimulation condition and 8 different pMHC molecules per readout condition. […]
Stimulations were initiated in 96-well plates by co-incubating […] CD8+ T cells with 2×10^5 washed coated beads in 200 μl TCM supplemented with 5 ng/ml IL-12 (PromoCell) for 3 days at 37° C. […] For the pMHC multimer readout using 8 different pMHC molecules per condition, a two-dimensional combinatorial coding approach was used as previously described (Andersen et al., 2012) with minor modifications encompassing coupling to 5 different fluorochromes. […] Peptide specific cells were calculated as percentage of total CD8+ cells. […] In vitro priming of specific multimer+CD8+ lymphocytes was detected by comparing to negative control stimulations.

“278 (YLDRKLLTL; listed as Homo sapiens) [compound 278]” was tested, and the “Wells positive [%]” value was “++++ (>=70% = ++++)”.
“279 (LYIDRPLPYL; listed as Homo sapiens) [compound 279]” was tested, and the “Wells positive [%]” value was “++++ (>=70% = ++++)”.
